Results as given in US20220304957A1, “ANTI-CANCER COMPOSITIONS AND METHODS OF USE” (Board of Supervisors of Louisiana State University and …, priority 2019, published 2022).

Tests used:
[1] = Temozolomide pharmacokinetics and CNS penetration (literature); type: in vivo, human; conditions: from 20% of plasma concentration
Text: An efficient treatment of GBM is difficult to develop for a series of reasons. First, GBM is characterized by many dysregulated pathways that can hardly be all blocked and repaired at the same time with a single therapy [Alifieris, C.; Trafalis, D. T. “Glioblastoma multiforme: pathogenesis and treatment” Pharmacol. Ther. 2015, 152, 63-82.]. Second, GBM partly consists of infiltrating cells that cannot easily be all removed by surgery. Third, GBM early diagnosis is not carried out routinely. Sensitive imaging techniques, such as MRI are still too expensive to be carried out on a regular basis over the whole population. Fourth, the optimization of a clinical protocol for GBM treatment requires the use of an accurate and representative preclinical GBM model. Currently used mouse and rat models are not appropriate because their tumors are typically ˜10^3-10^4 smaller than human GBM [Biasibetti, E.; Valazza, A.; Capucchio, M. T.; Annovazzi, L.; Battaglia. L.; Chirio, D.; Gallarate, M.; Mellai, M.; Muntoni, E.; Peira, E.; Riganti, C.; Schiffer, D.; Panciani, P.; Lanotte, M. “Comparison of Allogeneic and Syngeneic Rat Glioma Models by Using MRI and Histopathologic Evaluation” Comp. Med. 2017, 67, 147-156.]. […]

[2] = cited from earlier work

experimentally estimated log BB (Brain-Blood Distribution) [1]: around −0.7
Compound: Cn1nnc2c(C(N)=O)ncn2c1=O [TMZ, temozolomide]
concentration in brain and cerebrospinal fluid, % of the plasma concentration ([2]; 35 patients with malignant gliomas): approximately 20% | elimination half-life ([2]; oral administration): approximately 1.8 hours
